Results on two molecules are retold here after patent US10905691B2, “Use of triazolo(4,5-d)pyrimidine derivatives for prevention and treatment of bacterial infection” (Universite de Liege, priority 2016, dated 2021).

The subject of assay [1] is S. aureus MRSA (ATCC BAA-1556). The assay can be described thus: Killing curve (CFU counting). The following applies: Triafluocyl 20 μg/ml. Format: cell-based, Staphylococcus aureus. The protocol:
S. aureus MRSA (ATCC BAA-1556) was grown overnight in brain heart infusion (BHI) medium, diluted 1:100 in fresh BHI, and incubated aerobically at 37° C. until bacteria growth reached a logarithmic phase (OD600=0.25-0.3).
Triafluocyl (Cayman Chemical, Item No. 15425) (20 μg/ml), Vancomycin (Sigma, 4 μg/ml or 10 μg/ml), Minocycline (Sigma, 8 μg/ml) or a solvent (DMSO) were added to 5 ml of S. aureus MRSA suspensions.
Bacterial growth for S. aureus MRSA was measured after different time intervals by counting the colony-forming units after plating appropriate culture dilutions on BHI agar plates.
S. aureus MRSA (ATCC BAA-1556) was grown overnight in BHI medium, then a 1:100 inoculum was diluted in fresh BHI and incubated aerobically at 37° C. until bacteria growth reached a logarithmic phase (OD600=0.25-0.3). The culture was split into two and challenged with 38 μM Fluometacyl (=18.2 μg/ml) or DMSO (Ctrl). Bacterial growth was measured after different time intervals by counting the colony-forming units after plating appropriate culture dilutions on BHI agar plates. (N=2)

For assay [2], the system named is Escherichia coli (ATCC 8739). The assay can be described thus: MIC determination with or without polymyxin B nonapeptide (PMBN). The format is cell-based. The following applies: PMBN alone up to 40 μg/ml. Here is the method: Determination of Minimal Inhibitory Concentration (MIC) and Minimal Bactericidal Concentration (MBC) of Triafluocyl (Cayman Chemical, Item No. 15425) in presence of polymyxin B nonapeptide (PMBN) (Sigma-Aldrich Merk, Item No. P2076) against Escherichia coli (ATCC 8739). […] A single colony grown on a Luria-Bertani Agar (LB) plate was resuspended and cultured in LB medium overnight (O/N) in aerobic conditions (37° C. with 220 rpm shaking), next day a 1:50 inoculum in Mueller-Hinton broth (MHB) is incubated in aerobic conditions for 1 h30 (OD=0.08-0.1) and an inoculum corresponding to 3×10^6 colony forming unit (CFU)/ml, is incubated in presence or absence of different concentrations of Triafluocyl in 1% DMSO with or without 40 μg/ml Polymyxin B nonapeptide (PMBN) for 18 hr in aerobic conditions (37° C. with 220 rpm shaking). Growth of Escherichia coli in 7 conditions depicted in FIG. 11 is evaluated by reading the OD of each culture at 600 nm (OD600) in a spectrophotometer (Victor 3-Perkin Elmer). Determination of Minimal Inhibitory Concentration (MIC) and Minimal Bactericidal Concentration (MBC) of Fluometacyl in presence of polymyxin B nonapeptide (PMBN) (Sigma-Aldrich Merk, Item No. P2076) against Escherichia coli (ATCC 8739). The Minimal Inhibitory Concentration (MIC) represents the concentration, in a liquid culture, at which there is no visible growth of bacteria (no pellet or cloudiness), i.e. ΔOD at 600 nm equal to zero wherein ΔOD is the difference between the resulting optical density (OD) with the molecule together with PMBN, and the optical density (OD) of the blank (blank is the medium alone). A single colony grown on a Luria-Bertani Agar (LB) plate is resuspended and cultured in LB medium overnight (O/N) in aerobic conditions (37° C. with 220 rpm shaking), next day a 1:50 inoculum in Mueller-Hinton broth (MHB) is incubated in aerobic conditions for 1 h30 (OD=0.08-0.1) and an inoculum corresponding to 3×10^6 colony forming unit (CFU)/ml is incubated in presence or absence of different concentrations of Fluometacyl in 1% DMSO (vehicle) with or without 40 μg/ml Polymyxin B nonapeptide (PMBN) for 18 hr in aerobic conditions (37° C. with 220 rpm shaking). Growth of bacteria in the 7 individual cultures (FIG. 12A) is evaluated by reading the OD of each culture at 600 nm (OD600) in a spectrophotometer (Victor 3-Perkin Elmer).

With `CN[C@H](CC(C)C)C(=O)N[C@H]1C(=O)N[C@@H](CC(N)=O)C(=O)N[C@H]2C(=O)N[C@H]3C(=O)N[C@H](C(=O)N[C@H](C(=O)O)c4cc(O)cc(O)c4-c4cc3ccc4O)[C@H](O)c3ccc(c(Cl)c3)Oc3cc2cc(c3O[C@@H]2O[C@H](CO)[C@@H](O)[C@H](O)[C@H]2O[C@H]2C[C@](C)(N)[C@H](O)[C@H](C)O2)Oc2ccc(cc2Cl)[C@H]1O` [Vancomycin, reference compound], the “effect on S. aureus MRSA viable count after the first two hours” value in assay [1] (Vancomycin 10-fold MIC, Minocycline 8-fold MIC, FIG. 8A) is listed as “ineffective”. Moreover, the “bactericidal effect over the 24 h-experiment compared with Triafluocyl” value in assay [1] (Vancomycin 4 or 10 μg/ml, Minocycline 8 μg/ml) is “less efficient”.
In the case of “polymyxin B nonapeptide [PMBN, reference compound]”, the “inhibition of E. coli growth” value in assay [2] is listed as “unable to inhibit E. coli growth”.
